Data reported in PMC9578396, “Intrinsic Antibacterial Activity of Xeruborbactam In Vitro: Assessing Spectrum and Mode of Action” (Antimicrobial Agents and Chemotherapy, 2022).
Converted amounts (≈) assume the structure as drawn. “And” between values parts separate entries of the source, which are not always exact repeats. Identical values can stand only once. Like-named read-outs stand apart in the source and are kept apart here.

Experiments:
Type in all cases: cell-based
[1] = system: Escherichia coli; assay: Broth microdilution MIC (CLSI), Escherichia coli; conditions: Escherichia coli
In short: (§1)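 Test organisms were KPC-producing clinical isolates (some enriched for porin mutations), matched isolates that lost KPC plasmids, and engineered porin/efflux mutant strains. Susceptibility was measured by broth microdilution following CLSI methods, using panels prepared in-house.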

[2] = system: Enterococcus faecalis; assay: MIC, Enterococcus faecalis
Source text: (§2) Bacterial isolates were subjected to broth microdilution susceptibility testing, performed according to Clinical and Laboratory Standards Institute (CLSI) methods ([46]), using panels prepared in-house. Meropenem was purchased from Sandoz, and all other antibiotics were from Sigma-Aldrich. Xeruborbactam was synthesized at Qpex Biopharma, San Diego, CA. Avibactam was purchased from eNovation Chemicals LLC, Bridgewater, NJ, USA; zidebactam was from MedKoo Biosciences, Inc., Morrisville, NC, and nacubactam was from Advanced ChemBlocks, Hayward, CA. Durlobactam was synthesized at Acme Bioscience, Palo Alto, CA, USA.

[3] = system: Pseudomonas aeruginosa; assay: Broth microdilution MIC (CLSI), Pseudomonas aeruginosa
In short: as §1

[4] = system: Staphylococcus aureus; assay: MIC, Staphylococcus aureus (MSSA, MRSA)
Source text: as §2

C[C@@H](O)[C@H]1C(=O)N2C(C(=O)O)=C(S[C@@H]3CN[C@H](C(=O)N(C)C)C3)[C@H](C)[C@H]12 [Meropenem]
MIC [1]: 0.03 µg/mL | MIC ([1]; MG1655): 0.03 µg/mL and 0.08 µM | MIC ([1]; strain ECM6001, ΔacrB): 0.03 µg/mL | MIC ([1]; strain ECM6502, marR (AcrAB overexpression)): 0.06 µg/mL | MIC ([2]; efs003): 2 µg/mL (≈ 5.22 µM) | MIC ([2]; efs004): 4 µg/mL (≈ 10.4 µM) | MIC ([2]; efs005): 4 µg/mL (≈ 10.4 µM) | MIC ([2]; efs006): 2 µg/mL (≈ 5.22 µM) | MIC ([2]; efs007): 4 µg/mL (≈ 10.4 µM) | MIC ([2]; efs026): 2 µg/mL (≈ 5.22 µM) | MIC ([2]; efs071): 4 µg/mL (≈ 10.4 µM) | MIC ([2]; efs072): 2 µg/mL (≈ 5.22 µM) | MIC ([2]; efs073): 4 µg/mL (≈ 10.4 µM) | MIC ([2]; efs090): 1 µg/mL (≈ 2.61 µM) | MIC ([2]; efs091): 1 µg/mL (≈ 2.61 µM) | MIC ([2]; efs092): 8 µg/mL (≈ 20.9 µM) | MIC ([2]; efs093): 16 µg/mL (≈ 41.7 µM) | MIC ([2]; efs094): > 32 µg/mL | MIC ([2]; efs095): 4 µg/mL (≈ 10.4 µM) | MIC ([2]; efs096): 4 µg/mL (≈ 10.4 µM) | MIC ([3]; PAM1154 (oprM::Hg), xeruborbactam 0 µg/ml): 0.5 µg/mL | MIC ([3]; Pseudomonas aeruginosa): 0.25 µg/mL | MIC ([3]; Pseudomonas aeruginosa, PAO1): 0.06 µg/mL and 0.16 µM | MIC ([3]; Pseudomonas aeruginosa, strain PAM1032, nalB (MexAB-OprM overexpression)): 1 µg/mL | MIC ([3]; Pseudomonas aeruginosa, strain PAM1033, nfxB (MexCD-OprJ overexpression)): 0.25 µg/mL | MIC ([3]; Pseudomonas aeruginosa, strain PAM1034, nfxC (MexEF-OprN overexpression)): 0.5 µg/mL | MIC ([3]; Pseudomonas aeruginosa, strain PAM1106, mexA::Tet): 0.06 µg/mL | MIC ([3]; Pseudomonas aeruginosa, strain PAM1154, oprM::Hg): 0.06 µg/mL | MIC ([4]; Staphylococcus aureus, ATCC 29213 / MSSA, ATCC 29213, MSSA, read-out: MIC): 0.06 µg/mL (≈ 0.156 µM) | MIC ([4]; Staphylococcus aureus, MRSA, sa001, MRSA, read-out: MIC): 16 µg/mL (≈ 41.7 µM) | MIC ([4]; Staphylococcus aureus, MRSA, sa010, MRSA, read-out: MIC): 32 µg/mL (≈ 83.4 µM) | MIC ([4]; Staphylococcus aureus, MRSA, sa013, MRSA, read-out: MIC): 16 µg/mL (≈ 41.7 µM) | MIC ([4]; Staphylococcus aureus, MRSA, sa014, MRSA, read-out: MIC): 8 µg/mL (≈ 20.9 µM) | MIC ([4]; Staphylococcus aureus, MRSA, sa148, MRSA, read-out: MIC): 32 µg/mL (≈ 83.4 µM) | MIC ([4]; Staphylococcus aureus, MRSA, sa150, MRSA, read-out: MIC): 32 µg/mL (≈ 83.4 µM) | MIC ([4]; Staphylococcus aureus, MRSA, sa151, MRSA, read-out: MIC): 32 µg/mL (≈ 83.4 µM) | MIC ([4]; Staphylococcus aureus, MRSA, sa152, MRSA, read-out: MIC): 4 µg/mL (≈ 10.4 µM) | MIC ([4]; Staphylococcus aureus, MRSA, sa153, MRSA, read-out: MIC): 32 µg/mL (≈ 83.4 µM) | MIC ([4]; Staphylococcus aureus, MRSA, sa278, MRSA, read-out: MIC): 32 µg/mL (≈ 83.4 µM) | MIC ([4]; Staphylococcus aureus, MRSA, sa279, MRSA, read-out: MIC): 4 µg/mL (≈ 10.4 µM) | MIC ([4]; Staphylococcus aureus, MRSA, sa280, MRSA, read-out: MIC): 4 µg/mL (≈ 10.4 µM) | MIC ([4]; Staphylococcus aureus, MRSA, sa281, MRSA, read-out: MIC): 32 µg/mL (≈ 83.4 µM) | MIC ([4]; Staphylococcus aureus, MSSA): 0.125 µg/mL (≈ 0.326 µM) | MIC ([4]; Staphylococcus aureus, MSSA, sa007, MSSA, read-out: MIC): 0.25 µg/mL (≈ 0.652 µM) | MIC ([4]; Staphylococcus aureus, MSSA, sa015, MSSA, read-out: MIC): 0.25 µg/mL (≈ 0.652 µM) | MIC ([4]; sa002, MSSA): 0.125 µg/mL (≈ 0.326 µM) | MIC ([4]; sa003, MSSA): 0.125 µg/mL (≈ 0.326 µM) | MIC ([4]; sa004, MSSA): 0.125 µg/mL (≈ 0.326 µM) | MIC ([4]; sa005, MSSA): 0.125 µg/mL (≈ 0.326 µM) | MIC ([4]; sa006, MSSA): 0.125 µg/mL (≈ 0.326 µM) | MIC ([4]; sa008, MSSA): 0.125 µg/mL (≈ 0.326 µM) | MIC ([4]; sa009, MSSA): 0.125 µg/mL (≈ 0.326 µM) | MIC ([4]; sa012, MSSA): 0.125 µg/mL (≈ 0.326 µM)
